This is an account of results in US4645769A, “1-oxa-1-dethia-cephalosporin compounds and antibacterial agent comprising the same” (Merck & Co., Inc., priority 1985, dated 1987).

The structures appear in SMILES notation. Converted amounts (≈) assume the structure as drawn. Structures can show the parent of a compound that is named as a salt. A value given as a limit tells only on which side of the number the result lay.

What all share (assay type): cell-based
For test [1], the system named is Staphylococcus aureus 209 P JC-1. Briefly: Minimum Inhibitory Concentration (MIC), antibacterial spectrum in vitro. To be noted: Staphylococcus aureus 209 P JC-1; for MIC: 209PJC1, read-out: Minimum Inhibitory Concentration (MIC).
In test [2] the test system is Salmonella typhimurium LT-2. The test is described as above. To be noted: Salmonella typhimurium LT-2; for MIC: Salmonella enterica, read-out: Minimum Inhibitory Concentration (MIC).
For test [3], the system named is Citrobacter freundii GN-346. Described as above. To be noted: Citrobacter freundii GN-346; for MIC: GN346, read-out: Minimum Inhibitory Concentration (MIC).
Test [4] deals with Streptococcus faecalis ATCC 8043. The description is as above. To be noted: Streptococcus faecalis ATCC 8043; for MIC: Enterococcus faecalis, ATCC8043, read-out: Minimum Inhibitory Concentration (MIC).
For test [5], the system named is Pseudomonas aeruginosa MB-3833. Described as above. The following applies: Pseudomonas aeruginosa MB-3833; for MIC: MB3833, read-out: Minimum Inhibitory Concentration (MIC).
The test system of test [6] is Esherichia coli NIHJ JC-2. Described as above.
Test [7] has as its system Pseudomonas aeruginosa E-2. The description is as above. To be noted: Pseudomonas aeruginosa E-2; for MIC: E2, read-out: Minimum Inhibitory Concentration (MIC).
In test [8] the test system is Klebsiella pneumoniae PCI 602. The test is described as above. To be noted: Klebsiella pneumoniae PCI 602; for MIC: PCI602, read-out: Minimum Inhibitory Concentration (MIC).
For a further test, the system named is Proteus morganii 1510. The test is described as above. To be noted: Proteus morganii 1510; for MIC: Morganella morganii, read-out: Minimum Inhibitory Concentration (MIC).
The test system of the next test is Pseudomonas aeruginosa. Briefly: Antibacterial activity against Pseudomonas aeruginosa (from Table 1). To be noted: in words.

For the compound `CC[n+]1ccc(SCC2=C(C(=O)[O-])N3C(=O)C(NC(=O)C(=NOC(C)(C)C(=O)O)c4csc(N)n4)C3OC2C)cc1` [Compound 2, (6R,7R)-7-((Z)-2-(2-Aminothiazole-4-yl)-2-(2-carboxyprop-2-oxyimino)acetamide)-(2S)-2-methyl-3-(1-ethyl-pyridinium-4-ylthiomethyl)-1-oxa-1-dethiaceph-3-em-4-carboxylate (Sodium Salt)], the MIC in [1] was 0.78 µg/mL; in test [2] it was under 0.025 µg/mL; in test [3] it was 0.78 µg/mL; in test [4], 50 µg/mL; in [5], 3.13 µg/mL; in test [6] it was 0.2 µg/mL. Further, the MIC in [7] is 3.13 µg/mL; in test [8], 0.2 µg/mL; in the test on Proteus morganii 1510, 0.1 µg/mL. Also, the “effectiveness against Pseudomonas aeruginosa” value (“effectiveness” for short) in the test with Pseudomonas aeruginosa is “effective against Pseudomonas aeruginosa”.
Consider `C[C@@H]1O[C@@H]2[C@@H](NC(=O)/C(=N\OCC(=O)[O-])c3csc(N)n3)C(=O)N2C(C(=O)[O-])=C1CSc1cc[n+](C)cc1.[Na+]` [Compound 18, (6R,7R)-7-((Z)-2-(2-Aminothiazole-4-yl)-2-carboxymethoxyiminoacetamide)-(2S)-2-methyl-3-(1-methylpyridinium-4-ylthiomethyl)-1-oxa-1-dethiaceph-3-em-4-carboxylate (Sodium Salt)], for which the “Minimum Inhibitory Concentration (MIC)” value in test [1] is 0.78 µg/mL; in test [2], under 0.025 µg/mL; in test [3], 1.56 µg/mL; in test [4], 25 µg/mL; in test [5] it was 1.56 µg/mL; in test [6], 0.05 µg/mL. The “Minimum Inhibitory Concentration (MIC)” value in test [7] was found to be 1.56 µg/mL; in [8], 0.10 µg/mL; in the test with Proteus morganii 1510, 0.10 µg/mL.
With `CC1OC2C(NC(=O)C(=NOC(C)(C)C(=O)O)c3csc(N)n3)C(=O)N2C(C(=O)[O-])=C1CSc1cc[n+](CCF)cc1` [Compound 3, (6R,7R)-7-((Z)-2-(2-Aminothiazole-4-yl)-2-(2-carboxyprop-2-oxyimino)acetamide)-(2S)-2-methyl-3-(1-(2-fluoroethyl)pyridinium-4-ylthiomethyl)-1-oxa-1-dethiaceph-3-em-4-carboxylate (Sodium Salt)], the MIC is 0.78 µg/mL in test [1]; under 0.025 µg/mL in test [2]; 0.78 µg/mL in [3]; 25 µg/mL in test [4]; 1.56 µg/mL in [5]; 0.2 µg/mL in [6]. Besides, the values for the MIC (in [7]; in test [8]; in the test with Proteus morganii 1510) were 1.56 µg/mL, 0.2 µg/mL and 0.2 µg/mL, respectively. For the same compound, in the test with Pseudomonas aeruginosa, the “effectiveness” value was “effective against Pseudomonas aeruginosa”.
In the case of `CC1OC2C(NC(=O)C(=NOC(C)(C)C(=O)O)c3csc(N)n3)C(=O)N2C(C(=O)[O-])=C1CSc1cc[n+](CC(=O)O)cc1` [Compound 5, (6R,7R)-7-((Z)-2-(2-Aminothiazole-4-yl)-2-(2-carboxyprop-2-oxyimino)acetamide)-(2S)-2-methyl-3-(1-carboxymethylpyridinium-4-ylthiomethyl-1-oxa-1-dethiaceph-3-em-4-carboxylate (Sodium Salt)], the MIC in [1] is 12.5 µg/mL; in test [2], 0.1 µg/mL; in test [3] it was 3.13 µg/mL; in [4], 50 µg/mL; in test [5], 3.13 µg/mL; in [6], 0.39 µg/mL. The figures for the MIC (in test [7]; in test [8]; with Proteus morganii 1510) were 6.25 µg/mL, 0.39 µg/mL and 1.56 µg/mL, respectively.
As for `CC(C)(ON=C(C(=O)NC1C(=O)N2C(C(=O)[O-])=C(CSc3cc[n+](CCF)cc3)COC12)c1csc(N)n1)C(=O)O` [Compound 15, (6R,7R)-7-((Z)-2-(2-Aminothiazole-4-yl)-2-2-carboxyprop-2-oxyimino)acetamide)-3-((2-fluoroethyl)pyridinium-4-ylthiomethyl)-1-oxa-1-dethiaceph-3-em-4-carboxylate], the MIC was determined as 6.25 µg/mL (≈ 10.3 µM) in test [1]; 0.5 µg/mL (≈ 0.822 µM) in [2]; 50 µg/mL (≈ 82.2 µM) in test [3]; 50 µg/mL (≈ 82.2 µM) in test [4]; 3.13 µg/mL (≈ 5.14 µM) in [5]; 0.1 µg/mL (≈ 0.164 µM) in [6]. The MIC in test [7] is 3.13 µg/mL (≈ 5.14 µM); in test [8], 0.1 µg/mL (≈ 0.164 µM); in the test on Proteus morganii 1510, 6.25 µg/mL (≈ 10.3 µM). Moreover, the “effectiveness” value in the test on Pseudomonas aeruginosa is “effective against Pseudomonas aeruginosa”.
Take `CCN1CCN(C(=O)NC(C(=O)NC2C(=O)N3C(C(=O)[O-])=C(CSc4cc[n+](C)cc4)COC23)c2csc(N)n2)C(=O)C1=O` (racemic) [Compound 20, (6R,7R)-7-(DL-2-(2-Aminothiazole-4-yl)-2-(4-ethyl-2,3-dioxopiperazine-1-ylcarboxamide)acetamide)-3-(1-methylpyridinium-4-ylthiomethyl)-1-oxa-1-dethiaceph-3-em-4-carboxylate (Sodium Salt)]: the MIC is 0.39 µg/mL in [1]; 0.2 µg/mL in [2]; 25 µg/mL in test [3]; over 100 µg/mL in test [4]; 100 µg/mL in test [5]; 0.1 µg/mL in test [6]. Also, the figures for the MIC (in test [7]; in test [8]; in the test on Proteus morganii 1510) were 25 µg/mL, 0.2 µg/mL and 6.25 µg/mL, respectively.
As to `CC1OC2C(NC(=O)C(=NOC(C)(C)C(=O)O)c3csc(N)n3)C(=O)N2C(C(=O)[O-])=C1CSc1cc[n+](C(CF)CF)cc1` [Compound 17, (6R,7R)-7-((Z)-2-(2-Aminothiazole-4-yl)-2-(2-carboxyprop-2-oxyimino)acetamide)-(2S)-2-methyl-3-(1-(1,3-difluoroprop-2-yl)-pyridinium-4-ylthiomethyl)-1-oxa-1-dethiaceph-3-em-4-carboxylate (Sodium Salt)], the MIC was 0.78 µg/mL in test [1]; under 0.025 µg/mL in [2]; 1.56 µg/mL in [3]; 25 µg/mL in test [4]; 1.56 µg/mL in [5]; 0.025 µg/mL in test [6]. The MIC in [7] is 1.56 µg/mL; in test [8], 0.05 µg/mL; in the test on Proteus morganii 1510 it was 0.2 µg/mL.
With `CC1OC2C(NC(=O)C(=NOC(C)(C)C(=O)O)c3csc(N)n3)C(=O)N2C(C(=O)[O-])=C1CSc1cc[n+](CC(F)(F)F)cc1` [Compound 4, (6R,7R)-7-((Z)-2-(2-Aminothiazole-4-yl)-2-(2-carboxyprop-2-oxyimino)acetamide)-(2S)-2-methyl-3-(1-(2,2,2-trifluoroethyl)pyridinium-4-ylthionethyl)-1-oxa-1-dethia-3-ceph-4-carboxylate (Sodium Salt)], the MIC in test [1] was found to be 1.56 µg/mL; in test [2], 0.05 µg/mL; in [3], 1.56 µg/mL; in test [4], 50 µg/mL; in test [5], 3.13 µg/mL; in test [6] it was 0.2 µg/mL. Besides, the MIC in test [7] is 3.13 µg/mL; in [8], 0.39 µg/mL; in the test with Proteus morganii 1510 it was 0.2 µg/mL. In the test with Pseudomonas aeruginosa, the “effectiveness” value was “effective against Pseudomonas aeruginosa”.
Turning to `CC1OC2C(NC(=O)C(=NOCC(=O)O)c3csc(N)n3)C(=O)N2C(C(=O)[O-])=C1CSc1cc[n+](CCF)cc1` [Compound 19, (6R,7R)-7-((Z)-2-(2-Aminothiazole-4-yl)-2-carboxymethoxyiminoacetamide)-(2S)-2-methyl-3-(1-(2-fluoroethyl)pyridinium-4-ylthiomethyl)-1-oxa-1-dethiaceph-3-em-4-carboxylate (Sodium Salt)], the MIC in [1] was 3.13 µg/mL; in [2], 0.1 µg/mL; in [3] it was 1.56 µg/mL; in test [4], over 100 µg/mL; in test [5], 3.13 µg/mL; in test [6], 0.78 µg/mL. Further, the MIC stood at 3.13 µg/mL in [7], 0.39 µg/mL in test [8] and 0.2 µg/mL with Proteus morganii 1510.
For the compound `CCN1CCN(C(=O)NC(C(=O)NC2C(=O)N3C(C(=O)[O-])=C(CSc4cc[n+](CC(=O)O)cc4)COC23)c2csc(N)n2)C(=O)C1=O` (racemic) [Compound 21, (6R,7R)-7-(DL-2-(2-Aminothiazole-4-yl)-2-(4-ethyl-2,3-dioxopiperazine-1-ylcarboxamide)acetamide)-3-(1-carboxymethylpyridinium-4-yl-thiomethyl)-1-oxa-1-dethiaceph-3-em-4-carboxylate (Sodium Salt)], the MIC in test [1] is 1.56 µg/mL; in [2], 0.1 µg/mL; in test [3], over 100 µg/mL; in test [4] it was 50 µg/mL; in [5] it was over 100 µg/mL; in [6], 0.05 µg/mL. For the same compound, the MIC in [7] was over 100 µg/mL; in test [8], 0.05 µg/mL; with Proteus morganii 1510, 12.5 µg/mL.
